# Reference: patent US20240309014A1, “MACROCYCLIC COMPOUNDS AND USES THEREOF” (President and Fellows of Harvard College, priority 2017, published 2024)
# How the values were obtained:
# [1] = system: HSC-2-Luc inoculated into tongue; assay: HSC-2 orthotopic transplantation mouse model; type: in vivo, nude mice; settings: for ILS (%): Compound (1) 0.09 mg/kg
# [2] = system: HCCl806 subcutaneous xenograft; assay: Antitumor activity against HCC1806 subcutaneous xenograft as monotherapy; type: in vivo, nude mice; settings: 0.18 mg/kg i.v., Q7Dx2
# Description: A human breast cancer cell line HCCl806, which had been cultured in an RPMI-1640 medium containing 10% FBS, and penicillin and streptomycin, was adjusted to a concentration of 1×10^8 cells/mL with PBS to prepare a cell suspension, and the suspension was mixed with Matrigel™ (BD Bioscience, #366237) in a ratio of 1:1 to prepare a cell suspension in a concentration of 5×10^7 cell/mL. The cell suspension was inoculated in a volume of 100 μL into a subcutaneous part of a right flank of nude mice, 5 weeks of ages (CAnN.Cg-Foxnlnu/CrlCrlj, female, Charles River Laboratories Japan, Inc.). Twelve days after cell inoculation, the shortest diameter and the longest diameter of a tumor in each mouse were measured by using an electronic digital caliper (Digimatic™ caliper, Mitutoyo Corporation), so as to calculate the volume of the tumor in accordance with the following calculation formulae: […]
# On the basis of the volumes of tumors obtained on the first day of administration, the mice were grouped such that averages of the tumor volumes were substantially equal among the groups. The experiment was conducted on groups each consisting of 6 mice. Test compound was dissolved in saline and intravenously administered at 0.18 mg/kg once a week for 2 weeks (Q7Dx2 schedule).
# [3] = system: human synovial sarcoma cell line HS-SY-II xenograft; assay: HS-SY-II xenograft model as monotherapy (FIG. 22); type: in vivo, nude mice
# Description: A human synovial sarcoma cell line HS-SY-II, which had been cultured in a DMEM containing 10% FBS, and penicillin-streptomycin, was adjusted to a concentration of 1×10^8 cells/mL with 50% Geltrex (Thermo Fisher Scientific) in Hanks' Balanced Salt Solution to prepare a cell suspension. The cell suspension was inoculated in a volume of 100 μL into a subcutaneous part of a right flank of nude mice, 5 weeks of ages (CAnN.Cg-Foxnlnu/CrlCrlj, female, Charles River Laboratories Japan Inc.). Thirty days after cell inoculation (Day 1), the shortest diameter and the longest diameter of a tumor in each mouse were measured by using an electronic digital caliper (Digimatic™ caliper, Mitutoyo Corporation), so as to calculate the volume of the tumor in accordance with the following calculation formulae: […]
# On the basis of the volumes of tumors obtained on Day 1, the mice were grouped such that averages of the tumor volumes were substantially equal among the groups. The experiment was conducted on groups each consisting of six mice. Compound (1) was dissolved in DMSO and a solution was stored in the freezer before use. Immediately before the administration, the stock solution was diluted with saline. The test compound in saline was intravenously once-weekly administered at 90 μg/kg or 180 μg/kg for 2 weeks (on Day 1 and Day 8).
# [4] = system: murine undifferentiated colon carcinoma cell line CT26; assay: CT26 subcutaneous syngeneic model in combination with anti-mPD-1 antibody; type: in vivo, BALB/c mice
# Description: A murine undifferentiated colon carcinoma cell line CT26, which had been cultured in an RPMI-1640 medium containing 10% FBS, and penicillin and streptomycin, was adjusted to a concentration of 2×10^7 cells/mL with Hank's Balanced Salt Solution to prepare a cell suspension. On day 1, the cell suspension was inoculated in a volume of 100 μL into a subcutaneous part of a right flank of BALB/c mice, 6 weeks of ages (BALB/cAnNCrlCrlj, female, Charles River Laboratories Japan, Inc.). Two days after the cell inoculation, the mice were randomly divided into four groups and each group consists of 8 mice. The shortest diameter and the longest diameter of a tumor in each mouse were measured by using an electronic digital caliper (Digimatic™ caliper, Mitutoyo Corporation), so as to calculate the volume of the tumor in accordance with the following calculation formula: […]
# The test compound was intravenously administered at 0.09 mg/kg on days 3 and 11. Anti-mPD-1 antibody (BE0146, Bio X Cell) was intravenously administered at 10 mg/kg on days 3, 7, 11, and 15.
# [5] = system: FaDu subcutaneous xenograft; assay: FaDu subcutaneous xenograft in combination with cetuximab, single dose (FIG. 16); type: in vivo, athymic mice; settings: single dose Day 1
# Description: A human squamous cell carcinoma of the head and neck (SCCHN) cell line FaDu, which had been cultured in an RPMI-1640 medium containing 10% FBS, and penicillin-streptomycin, was adjusted to a concentration of 5×10^7 cells/mL with Hanks' Balanced Salt Solution to prepare a cell suspension. The cell suspension was inoculated in a volume of 100 μL into a subcutaneous part of a right flank of athymic mice (CAnN.Cg-Foxnlnu/CrlCrlj, female, 7 weeks old, Charles River Japan Inc.). Ten days after cell inoculation (Day 1), the length and the width of a tumor in each mouse were measured by using an electronic digital caliper (Mitutoyo Corporation), so as to calculate the volume of the tumor in accordance with the following calculation formula: […]
# On the basis of TV, the mice were randomly grouped (Day 1). Each group was consisted in six mice. Compound (1) was dissolved in DMSO and a solution was stored in the freezer before use.
# [6] = system: human fibrosarcoma cell line HT-1080 xenograft; assay: HT-1080 xenograft as monotherapy (FIG. 17); type: in vivo, athymic mice; settings: 180 μg/kg i.v. Day 1 and Day 8
# Description: A human fibrosarcoma cell line HT-1080, which had been cultured in an E-MEM containing 10% FBS, NEAA and antibiotics was adjusted to a concentration of 3×10^7 cells/mL with medium to prepare a cell suspension. The cell suspension was inoculated in a volume of 100 μL into a subcutaneous part of a right flank of athymic mice (CAnN.Cg-Foxnlnu/CrlCrlj, female, 6 weeks old, Charles River Japan Inc.). Six days after cell inoculation (Day 1), the length and the width of a tumor in each mouse were measured by using an electronic digital caliper (Mitutoyo Corporation), so as to calculate the volume of the tumor in accordance with the following calculation formula: […]
# On the basis of TV, the mice were randomly grouped (Day 1). Each group was consisted in six mice. Compound (1) was dissolved in DMSO and a solution was stored in the freezer before use. Compound (1) (180 μg/kg) was diluted with saline and intravenously injected on Day 1 and Day 8.
smiles,measurement,setting,value
C=C1C[C@@H]2CC[C@@]34C[C@H]5O[C@H]6[C@@H](O3)[C@H]3O[C@H](CC[C@@H]3O[C@H]6C5O4)CC(=O)O[C@@H]3[C@@H](C)[C@@H]4O[C@@H]5C[C@]6(C[C@@H]7O[C@]8(C[C@H](C)[C@@H]9O[C@H](CN)[C@H](O)C[C@@H]9O8)C[C@H](C)[C@@H]7O6)O[C@@H]5C[C@@H]4O[C@H]3C[C@H]3O[C@@H](CC[C@@H]1O2)C[C@@H](C)C3=C (stereo in doubt) [Compound (1)],bioluminescence signal,"[1]; Compound (1) with cetuximab, after Day 14",clearly reduced the bioluminescence signal in all mice
same,survived mice on Day 100,"[1]; Compound (1)+CTX combination group, n=16",10
same,ILS (%),"[1]; single agent, Q7Dx3: cetuximab 5 mg/kg, cisplatin 5 mg/kg",238%
same,ILS (%),"[1]; with cetuximab 5 mg/kg, Q7Dx3: cisplatin 5 mg/kg",>1150%
same,Tumor Regression (%),[2],90%
same,antitumor effect,[3]; 90 μg/kg i.v. Day 1 and Day 8,tumor growth delay
same,antitumor effect,[3]; 180 μg/kg i.v. Day 1 and Day 8,tumor regression
same,Inhibition of tumor growth on day 15 (%),[4]; 0.09 mg/kg i.v. days 3 and 11 + anti-mPD-1 antibody 10 mg/kg,62%
same,Inhibition of tumor growth on day 15 (%),[4]; single agent: anti-mPD-1 antibody 10 mg/kg or Compound (1) 0.09 mg/kg,30%
same,antitumor efficacy with CTX,[5]; 20 μg/kg + cetuximab 10 mg/kg,tended to be stronger than that of CTX monotherapy
same,antitumor efficacy with CTX,[5]; 180 μg/kg and 60 μg/kg + cetuximab 10 mg/kg,stronger than that of CTX monotherapy with tumor regression
same,antitumor activity,[6],tumor regression
